≈ marks a conversion by molar mass, not a printed value. Some results are limits rather than exact numbers.

Holding throughout (assay type): functional
The subject of test [1] is Brachyspira hyodysenteriae. Description: In vitro antibacterial activity against Serpulina (Treponema) hyodysenteriae.
Test [2] deals with Brachyspira hyodysenteriae. The test can be described thus: In vitro antibacterial activity against Serpulina (Treponema) hyodysenteriae was tested and is expressed as minimum inhibitory concentration: Value ranges from (0.78-1.56 ug/mL).
Test [3] deals with Brachyspira hyodysenteriae. The test can be described thus: In vitro antibacterial activity against Serpulina (Treponema) hyodysenteriae was tested and is expressed as minimum inhibitory concentration: Value ranges from (12.5-25 ug/mL).
The test system of test [4] is Brachyspira hyodysenteriae. The test can be described thus: In vitro antibacterial activity against Serpulina (Treponema) hyodysenteriae was tested and is expressed as minimum inhibitory concentration: Value ranges from (0.39-0.78 ug/mL).
The subject of test [5] is Brachyspira hyodysenteriae. Description: In vitro antibacterial activity against Serpulina (Treponema) hyodysenteriae was tested and is expressed as minimum inhibitory concentration: Value ranges from (50-100 ug/mL).
The subject of test [6] is Brachyspira hyodysenteriae. Description: In vitro antibacterial activity against Serpulina (Treponema) hyodysenteriae was tested and is expressed as minimum inhibitory concentration: Value ranges from (3.13-6.25 ug/mL).
Test [7] deals with Brachyspira hyodysenteriae. Description: In vitro antibacterial activity against Serpulina (Treponema) hyodysenteriae was tested and is expressed as minimum inhibitory concentration: Value ranges from ([…] ug/mL).
The subject of test [8] is Brachyspira hyodysenteriae. The test can be described thus: In vitro antibacterial activity against Serpulina (Treponema) hyodysenteriae was tested and is expressed as minimum inhibitory concentration: Value ranges from (6.25-12.5 ug/mL).

In test [1], `C/C(=C\c1ccc(OCc2ccccc2)c(O)c1)C(=O)N[C@@H]1[C@H](O)[C@@H](O)[C@H]2OCO[C@H]2[C@@H]1O` registered an MIC of 25 µg/mL (≈ 54.6 µM).
On to `CCCOc1ccc(/C=C(\C)C(=O)N[C@@H]2[C@H](O)[C@@H](O)[C@H]3OCO[C@H]3[C@@H]2O)cc1O`, for which the MIC in test [2] turned out to be 0.78 µg/mL (≈ 1.91 µM).
As for `C/C(=C\c1ccc(OCCF)c(O)c1)C(=O)N[C@@H]1[C@H](O)[C@@H](O)[C@H]2OCO[C@H]2[C@@H]1O`, inhibition of growth in test [1] (MIC) required 6.25 µg/mL (≈ 15.1 µM).
Take `CCCCc1ccc(/C=C(\C)C(=O)N[C@@H]2[C@H](O)[C@@H](O)[C@H]3OCO[C@H]3[C@@H]2O)cc1`: the MIC in test [3] was found to be 12.5 µg/mL (≈ 31.9 µM).
In test [1], `C#CCOc1ccc(/C=C(\C)C(=O)N[C@@H]2[C@H](O)[C@@H](O)[C@H]3OCO[C@H]3[C@@H]2O)cc1F` displayed an MIC of 6.25 µg/mL (≈ 15.3 µM).
Take `C/C(=C\c1ccc(N)c(O)c1)C(=O)N[C@@H]1[C@H](O)[C@@H](O)[C@H]2OCO[C@H]2[C@@H]1O`: the MIC in test [1] is greater than 200 µg/mL.
As to `CCCNc1ccc(/C=C(\C)C(=O)N[C@@H]2[C@H](O)[C@@H](O)[C@H]3OCO[C@H]3[C@@H]2O)cc1O`, the minimal inhibitory concentration (MIC) in test [3] came to 12.5 µg/mL (≈ 30.6 µM).
As to `CCOc1ccc(/C=C(\C)C(=O)N[C@@H]2[C@H](O)[C@@H](O)[C@H]3OCO[C@H]3[C@@H]2O)cc1O`, the MIC in test [1] worked out at 1.56 µg/mL (≈ 3.95 µM).
`CSC1C(C(C)=O)O[C@@H](Oc2ccc(/C=C(\C)C(=O)N[C@@H]3[C@H](O)[C@@H](O)[C@H]4OCO[C@H]4[C@@H]3O)cc2O)[C@H]1O` (some centres undefined): in test [1], the MIC was greater than 100 µg/mL.
Regarding `CSCCCOc1ccc(/C=C(\C)C(=O)N[C@@H]2[C@H](O)[C@@H](O)[C@H]3OCO[C@H]3[C@@H]2O)cc1O`, the MIC in test [2] was found to be 0.78 µg/mL (≈ 1.71 µM).
For the molecule `CCCN(CC)c1ccc(/C=C(\C)C(=O)N[C@@H]2[C@H](O)[C@@H](O)[C@H]3OCO[C@H]3[C@@H]2O)cc1O`, the MIC in test [1] is greater than 200 µg/mL.
For `C/C(=C\c1ccc(OCC2CC2)c(O)c1)C(=O)N[C@@H]1[C@H](O)[C@@H](O)[C@H]2OCO[C@H]2[C@@H]1O`, inhibition of growth in test [4] (MIC) required 0.39 µg/mL (≈ 0.925 µM).
`CCNc1ccc(/C=C(\C)C(=O)N[C@@H]2[C@H](O)[C@@H](O)[C@H]3OCO[C@H]3[C@@H]2O)cc1O`: the MIC in test [1] amounted to 100 µg/mL (≈ 254 µM).
In the case of `C/C(=C\c1ccc(OCOCCO)c(O)c1)C(=O)N[C@@H]1[C@H](O)[C@@H](O)[C@H]2OCO[C@H]2[C@@H]1O`, inhibition of growth in test [1] (MIC) required 25 µg/mL (≈ 56.6 µM).
For the molecule `C/C(=C\c1cccc(O)c1)C(=O)N[C@@H]1[C@H](O)[C@@H](O)[C@H]2OCO[C@H]2[C@@H]1O`, in test [1], the MIC is greater than 200 µg/mL.
The same measure, in the same setting: as for `C/C(=C\c1ccc(-c2ccccc2)cc1)C(=O)N[C@@H]1[C@H](O)[C@@H](O)[C@H]2OCO[C@H]2[C@@H]1O`, the figure is 12.5 µg/mL (≈ 30.4 µM); as for `COc1ccc(/C=C(\C)C(=O)N[C@@H]2[C@H](O)[C@@H](O)[C@H]3OCO[C@H]3[C@@H]2O)cc1O`, 12.5 µg/mL (≈ 32.8 µM); as for `CC(=O)C1O[C@@H](Oc2ccc(/C=C(\C)C(=O)N[C@@H]3[C@H](O)[C@@H](O)[C@H]4OCO[C@H]4[C@@H]3O)cc2O)[C@@H](O)C1Sc1ccccc1` (some centres undefined), greater than 100 µg/mL.
As for `C#CCOc1ccc(/C=C(\C)C(=O)N[C@@H]2[C@H](O)[C@@H](O)[C@H]3OCO[C@H]3[C@@H]2O)cc1O`, in test [1], 6.25 µg/mL (≈ 15.4 µM) was the least that counted as inhibitory (MIC).
Regarding `CC(=O)[C@@H]1C[C@H](O)[C@H](Oc2ccc(/C=C(\C)C(=O)N[C@@H]3[C@H](O)[C@@H](O)[C@H]4OCO[C@H]4[C@@H]3O)cc2O)O1`, in test [1], the MIC is greater than 100 µg/mL.
In the case of `C=C(C)COc1ccc(/C=C(\C)C(=O)N[C@@H]2[C@H](O)[C@@H](O)[C@H]3OCO[C@H]3[C@@H]2O)cc1O`, in test [1], inhibition of growth (MIC) required 3.13 µg/mL (≈ 7.43 µM).
The same measure, in the same setting: as for `C/C(=C\c1ccc(F)c(F)c1)C(=O)N[C@@H]1[C@H](O)[C@@H](O)[C@H]2OCO[C@H]2[C@@H]1O`, the figure is greater than 200 µg/mL.
As for `C/C(=C\c1ccc(OCCO)c(O)c1)C(=O)N[C@@H]1[C@H](O)[C@@H](O)[C@H]2OCO[C@H]2[C@@H]1O`, in test [5], the MIC was determined as 50 µg/mL (≈ 122 µM).
Take `C/C(=C\c1ccc(OCc2cccs2)c(O)c1)C(=O)N[C@@H]1[C@H](O)[C@@H](O)[C@H]2OCO[C@H]2[C@@H]1O`: it took 3.13 µg/mL (≈ 6.75 µM) to inhibit growth in test [6] (MIC).
`C=CCN(C(C)=O)c1ccc(/C=C(\C)C(=O)N[C@@H]2[C@H](O)[C@@H](O)[C@H]3OCO[C@H]3[C@@H]2O)cc1O` registered an MIC in test [1] greater than 200 µg/mL.
Consider `C/C(=C\c1ccc(OCC(O)CO)c(O)c1)C(=O)N[C@@H]1[C@H](O)[C@@H](O)[C@H]2OCO[C@H]2[C@@H]1O` (some centres undefined), for which, in test [1], the MIC is 25 µg/mL (≈ 56.6 µM).
On to `CC(=O)CCCOc1ccc(/C=C(\C)C(=O)N[C@@H]2[C@H](O)[C@@H](O)[C@H]3OCO[C@H]3[C@@H]2O)cc1O`, for which the MIC in test [7] was 12.5 µg/mL (≈ 27.7 µM).
`C/C(=C\c1ccc(OCC(N)=O)c(O)c1)C(=O)N[C@@H]1[C@H](O)[C@@H](O)[C@H]2OCO[C@H]2[C@@H]1O` showed an MIC in test [1] greater than 200 µg/mL.
`CCCCc1ccc(/C=C(\C)C(=O)N[C@@H]2[C@H](O)[C@@H](O)[C@H]3OCO[C@H]3[C@@H]2O)cc1O` returned an MIC in test [6] of 3.13 µg/mL (≈ 7.68 µM).
Molecule `C/C(=C\c1ccc(N2CCCC2)cc1)C(=O)N[C@@H]1[C@H](O)[C@@H](O)[C@H]2OCO[C@H]2[C@@H]1O` had a minimal inhibitory concentration (MIC) in test [1] of 6.25 µg/mL (≈ 15.5 µM).
`CC(=O)[C@H]1O[C@@H](Oc2ccc(/C=C(\C)C(=O)N[C@@H]3[C@H](O)[C@@H](O)[C@H]4OCO[C@H]4[C@@H]3O)cc2O)[C@@H](O)[C@@H]1O` [HYGROMYCIN A]: the MIC in test [2] is 0.78 µg/mL (≈ 1.52 µM).
`C/C(=C\c1ccc(OC2CCCC2)c(O)c1)C(=O)N[C@@H]1[C@H](O)[C@@H](O)[C@H]2OCO[C@H]2[C@@H]1O` yielded an MIC in test [1] of 6.25 µg/mL (≈ 14.4 µM).
As to `C=CCOc1ccc(/C=C(\C)C(=O)N[C@@H]2[C@H](O)[C@@H](O)[C@H]3OCO[C@H]3[C@@H]2O)cc1O`, the MIC in test [1] worked out at 0.78 µg/mL (≈ 1.91 µM).
Take `C/C(=C\c1ccc(O)c(O)c1)C(=O)NC1[C@@H](O)[C@@H]2OCO[C@@H]2[C@H](O)[C@H]1O` (some centres undefined): inhibition of growth in test [1] (MIC) required 200 µg/mL (≈ 544 µM).
`CCCCCOc1ccc(/C=C(\C)C(=O)N[C@@H]2[C@H](O)[C@@H](O)[C@H]3OCO[C@H]3[C@@H]2O)cc1O` displayed an MIC in test [1] greater than 200 µg/mL.
`C=CCOc1ccc(/C=C(\C)C(=O)N[C@@H]2[C@H](O)[C@@H](O)[C@H]3OCO[C@H]3[C@@H]2O)cc1F` had an MIC in test [1] of 1.56 µg/mL (≈ 3.81 µM).
In test [1], `C/C(=C\c1ccc(Cc2ccccc2)c(O)c1)C(=O)N[C@@H]1[C@H](O)[C@@H](O)[C@H]2OCO[C@H]2[C@@H]1O` gave an MIC greater than 200 µg/mL.
With `C/C(=C\c1ccc(N2CCCC2)c(F)c1)C(=O)N[C@@H]1[C@H](O)[C@@H](O)[C@H]2OCO[C@H]2[C@@H]1O`, in test [1], inhibition of growth (MIC) required 6.25 µg/mL (≈ 14.8 µM).
The same measure, in the same setting: as for `C=CC(C)Oc1ccc(/C=C(\C)C(=O)N[C@@H]2[C@H](O)[C@@H](O)[C@H]3OCO[C@H]3[C@@H]2O)cc1O` (some centres undefined), the figure is 25 µg/mL (≈ 59.3 µM); as for `CCCCOc1ccc(/C=C(\C)C(=O)N[C@@H]2[C@H](O)[C@@H](O)[C@H]3OCO[C@H]3[C@@H]2O)cc1O`, 1.56 µg/mL (≈ 3.68 µM).
In the case of `C=CCNc1ccc(/C=C(\C)C(=O)N[C@@H]2[C@H](O)[C@@H](O)[C@H]3OCO[C@H]3[C@@H]2O)cc1O`, it took 12.5 µg/mL (≈ 30.8 µM) to inhibit growth in test [3] (MIC).
In the case of `CCOCOc1ccc(/C=C(\C)C(=O)N[C@@H]2[C@H](O)[C@@H](O)[C@H]3OCO[C@H]3[C@@H]2O)cc1O`, in test [1], inhibition of growth (MIC) required 25 µg/mL (≈ 58.8 µM).
Regarding `COc1ccc(/C=C(\C)C(=O)N[C@@H]2[C@H](O)[C@@H](O)[C@H]3OCO[C@H]3[C@@H]2O)cc1F`, inhibition of growth in test [8] (MIC) required 6.25 µg/mL (≈ 16.3 µM).
With `CC(=O)C1=C[C@H](O)[C@H](Oc2ccc(/C=C(\C)C(=O)N[C@@H]3[C@H](O)[C@@H](O)[C@H]4OCO[C@H]4[C@@H]3O)cc2O)O1`, inhibition of growth in test [1] (MIC) required 25 µg/mL (≈ 50.7 µM).
